From PubChem BioAssay AID179 (DTP/NCI, 2004)
Calls of active or inactive are those of the source.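 The calls were made as follows: active = compounds giving half or more protection of infected cells from virus-caused growth loss, again on retest; inactive = the rest.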

System: CEM cells HIV-1 protection, formazan growth assay
Assay: NCI AIDS Antiviral Assay
Conditions: for IC50: measured here: growth of uninfected CEM cells
Outline: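 Protection of CEM cells against HIV-1 was scored from cell growth (soluble formazan) across five concentrations, with parallel uninfected cells. Lack of protection may reflect toxicity.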

SMILES	EC50 [µM]	IC50 [µM]	outcome
CCOP(N)(=O)c1ccccc1 (configuration not stated)	> 200	> 200	–
CCN(CC)C1C(=O)NC1C#Cc1ccccc1 (configuration not stated)	> 200	85.1	–
Cc1ccc(Cl)cc1N=NC(=O)NNc1cc(Cl)ccc1C	> 200	25.1	–
CSc1nnc2n1-c1ccccc1SCC2	> 1000	389	–
COc1cc(C(c2c(O)c3ccccc3oc2=O)c2c(O)c3ccccc3oc2=O)cc(OC)c1O	> 200	15.5	–
COc1cccc(-c2cc(=O)c3cc(C)c(C)c(C(=O)O)c3o2)c1	–	–	inactive
O=C1CCC2(c3ccccc3)Nc3cc(Cl)ccc3N12 (configuration not stated)	–	–	inactive
OC(c1cc2ccccc2o1)c1cc2ccccc2s1 (configuration not stated)	> 200	51.3	–
c1ccc2sc(-c3c4ccccc4cc4c3ccc3ccccc34)cc2c1	> 200	> 200	–
O=S1(=O)CC2C1C1(c3ccccc3)OC2(c2ccccc2)c2ccccc21 (configuration not stated)	> 200	20	–
CN(C)Cc1c[nH]c2c1S/C(=C/c1ccccc1)C2=O	> 178	16.6	–
COC(=O)C(C(=O)C(=O)Nc1ccc(C)cc1C)c1csc(-n2nc(-c3ccccc3)cc2-c2ccccc2)n1 (configuration not stated)	> 158	81.3	–
CCOC(=O)C1(Cc2ccc(C)cc2)Cc2ccc(C)cc2C1=O (configuration not stated)	> 200	4.68	–
Cc1cccc2c1Oc1cc(Cl)ccc1C2NC(=O)CCN1CCOCC1 (configuration not stated)	> 200	> 200	–
CC(C)(c1cn(Cc2ccccc2)c2ccccc12)c1cn(Cc2ccccc2)c2ccccc12	–	–	inactive
O=C(O)c1ccc(CS(=O)(=O)c2ccc(Cl)cc2)c([N+](=O)[O-])c1	> 708	324	–
CCOC(=O)c1c(NS(=O)(=O)c2ccccc2)sc2c1CCCC2	–	–	inactive
CCOC(=O)/C(C#N)=C/c1ccccc1[N+](=O)[O-]	> 275	46.8	–
CCN(CC)CCOc1ccc(/C(=C(\Cl)c2ccccc2)c2ccccc2)cc1	> 200	5.5	–
COc1ccc(N(C)C(=O)N(C)c2ccc([N+](=O)[O-])cc2)cc1	> 200	9.33	–
Cc1ccc2c(c1N)C(=O)c1ccccc1C2=O	> 200	123	–
c1ccc2c3nnc(c2c1)SCCSCCCSCCS3	> 200	> 200	–

SMILES	EC50 [µM]	IC50 [µM]	outcome
CC1CN1c1c(C(=O)/C=C/c2ccc(F)cc2)c(-c2ccccc2)nn(C)c1=O (configuration not stated)	> 120	11	–
S=C(N/N=C(\c1ccccc1)c1ccccn1)NC1CCCCC1	> 200	2.4	–
CCN1c2cc(Br)cc3[nH]c(=S)n(c23)CCC1C (configuration not stated)	3.72	112	–
COc1cc([C@@H]2c3cc4c(cc3[C@H](O)[C@H]3COC(=O)[C@H]23)OCO4)cc(OC)c1OC	> 2.29	0.00479	–
COC(=O)c1nn2ccc3ccccc3c2c1C(=O)OC	> 200	93.3	–
CC1=CC(c2ccccc2)OP1(=O)c1ccccc1 (configuration not stated)	> 200	> 200	–
CC1(C)SCC(COC(=O)c2ccccc2)S1 (configuration not stated)	> 200	> 200	–
COc1nc(OC)n(C)c(=O)c1OP(=O)(OC)OC	> 200	> 200	–
CC(=O)O[C@H]1CC[C@@]2(C)[C@H](CC[C@@H]3[C@@H]2CC[C@]2(C)[C@@H]4[C@H](C[C@@H]32)O[C@]2(CC[C@@H](C)CO2)[C@H]4C)C1	> 200	> 200	–
CN1C(=O)N/C(=C\c2ccc(S(=O)(=O)N/N=C\C(O)C(O)C(O)CO)cc2)C1=O (configuration not stated)	> 200	> 200	–
Cc1cc(=O)c2ccc3c(ccc4c(=O)cc(C)[nH]c43)c2[nH]1	> 200	11.5	–
CC1(C)C[C@H](O)[C@H](O)[C@]23C(=O)O[C@H](O)[C@H]2C(C=O)=CC[C@@H]13	> 200	> 200	–
NC(=O)CCNC(=O)c1ccccc1SC(=O)OCCBr	6.31	> 200	–
CCCCCC=C(c1cc(Br)cc(C(=O)OC)c1OC)c1cc(Br)cc(C(=O)OC)c1OC	42.7	43.7	–
Cc1cc2c(C(C)C)c(O)c(O)c(/C=N\O)c2c(O)c1-c1c(C)cc2c(C(C)C)c(O)c(O)c(/C=N/O)c2c1O	> 200	10	–
Cc1n[nH]c(=O)n1-c1cccnc1	> 200	> 200	–
Cc1ccc(S(=O)(=O)c2ccc(C)cc2[N+](=O)[O-])cc1	> 24.5	> 24.5	–
Cn1c(=O)c2c(ncn2CCCCOc2ccc3c(c2)[n+]([O-])nc(N)[n+]3[O-])n(C)c1=O	> 200	23.4	–
O=C1OS(=O)(=O)c2ccccc21	> 200	> 200	–
Cc1cccc(NC(=S)Nc2cccc(C)n2)n1	> 200	> 200	–
CC(C)(C)C1=CC(=N/N=c2\scc(-c3ccccc3)n2Cc2ccccc2)C=C(C(C)(C)C)C1=O	> 5.62	> 5.62	–
CC1(c2cc(Cl)c(Cl)cc2Cl)NC(=O)NC1=O (configuration not stated)	–	–	inactive

SMILES	EC50 [µM]	IC50 [µM]	outcome
COc1cccc(NC(=O)CSc2nnc(-c3ccc(NC(C)=O)cc3)o2)c1	> 64.6	> 64.6	–
CC(=O)OCC1OC(n2c(-c3ccc(C)cc3)cc(-c3ccco3)c(C#N)c2=O)C(OC(C)=O)C(OC(C)=O)C1OC(C)=O (configuration not stated)	> 16.2	> 16.2	–
COc1cc(C(=O)/C=C/c2ccccc2O)ccc1O	> 132	102	–
Oc1cc(Br)cc2cccnc12	–	–	inactive
COP(C)(=O)/C(Cc1ccccc1)=N\O (configuration not stated)	> 200	> 200	–
COc1ccc(C2CC(c3ccc4ccccc4c3O)=NN2C(C)=O)cc1OC (configuration not stated)	> 50.1	> 50.1	–
O=C(CSc1nnc(Cc2ccccc2)o1)Nc1ccc(Cl)cc1[N+](=O)[O-]	> 617	25.1	–
COc1cc(/C=C/C(=O)c2c(=O)o[nH][n+]2-c2ccccc2)ccc1[O-]	–	–	inactive
O=S(=O)(c1ccccc1)C(c1ccc2ccccc2n1)S(=O)(=O)c1ccccc1	> 200	41.7	–
Cc1cn(C2C=CC(=O)C(C)O2)c(=O)[nH]c1=O (configuration not stated)	> 1050	6.31	–
Cc1oc2c(C)c3oc(=O)cc(C)c3cc2c1CO	> 200	30.2	–
O=C1C2(Cl)C3(Cl)C4(OCCO4)C4(Cl)C2(Cl)C2(Cl)C1(Cl)C3(Cl)C42Cl (configuration not stated)	> 200	28.8	–
CCOC(=O)[C@@H](NC(=O)OC(C)(C)C)[C@@H](O)C(=O)OCC	> 200	> 200	–
O=C(NC(=O)c1cn(CCN2CCNCC2)c(=O)[nH]c1=O)OCc1ccccc1	–	–	inactive
O=C(C(Cl)=C(Nc1ccccc1)Nc1ccccc1)C(Cl)Cl	> 200	19.5	–
Cc1nc2c(cc1C(=O)N/N=C/c1ccc([N+](=O)[O-])cc1)c(=O)n(C)c(=O)n2C	> 200	> 200	–
O=C(O)C1COCN1C(=O)c1ccccc1SSc1ccccc1C(=O)N1COCC1C(=O)O (configuration not stated)	> 200	> 200	–
O=c1c2ccccc2[se]n1-c1cccnc1	7.94	36.3	–
Cc1nc(NCc2ccccc2)c2cc[nH]c2n1	> 174	107	–
c1ccc(C2ON2CCCN2OC2c2ccccc2)cc1 (configuration not stated)	> 200	> 200	–
Cc1ccc(S(=O)(=O)OC2C(C)OCOC3COCOC32)cc1 (configuration not stated)	> 145	> 145	–
